Test results as given in PMC4032254, “Targeting of the MYCN Protein with Small Molecule c-MYC Inhibitors” (PLoS ONE, 2014).

How the values were obtained:
Kelly cells [1] = test: Apoptosis, propidium iodide sub G1 DNA content, Kelly; format: cell-based, human
Protocol: (§1) Figure 5 Growth inhibition and apoptosis induction in MYCN amplified cells. (A) The amount of viable of cells was determined using crystal violet assay following 48 hours treatment of Kelly cells with increasing concentration of the indicated compound. Data are shown as percent of control (DMSO) treated cells and represent the mean of three independent experiments. Error bars indicate standard deviation. (B) Pearson's correlation between the IC50 values in the growth inhibition assay (A, Table 2) and the KD values for binding to MYCN (Table 1). (C–D) Quantification of apoptosis by propidium iodide staining for sub G1 DNA content of SK-N-BE(2) (C) and Kelly (D) cells. Data represent the means of at least three independent experiments. Error bars indicate standard deviation. We next investigated the level of apoptosis induction in response to treatment with the molecules using two different MNA NB cell lines (Figure 5C, D). […] To verify the MYCN specificity in apoptosis induction, we next used Tet21N NB cells with doxycycline regulated MYCN expression. […] Small molecule-induced apoptosis was scored by quantifying the sub-G0/G1 fraction of the cell cycle. […] Cells were stained with propidium iodide solution (5 µg/ml propidium iodide and 25 µg/ml RNase A in PBS) for 30 min at 37°C and analyzed in a FACScan flow cytometer (Becton Dickinson). […]

Kelly cells [2] = test: Crystal violet growth inhibition assay in Kelly cells; format: cell-based, human; conditions: 48 h treatment
Excerpt: Error bars indicate standard deviation. […] Error bars indicate standard deviation.

SK-N-BE(2) cells [3] = test: Oil Red O staining of lipids; format: cell-based, human; conditions: sub-lethal concentrations, 3 days
Protocol: To explore the effect on lipid accumulation of the small molecules studied here cells were treated with sub-lethal concentrations of the compounds and stained with Oil Red O in order to detect lipids.
SK-N-BE(2) cells grown on cover slips were fixed in 4% PFA, washed in PBS and then in 60% isopropanol before staining with filtered Oil Red O solution (2 mg/ml) in 60% isopropanol. Cells were washed briefly in distilled water and mounted onto glass slides using water-soluble mounting medium (Aqua Pertex, Histolab products AB). For visualization, bright field images were captured at 40X magnification using an Axiovert 40 CFL inverted fluorescence microscope (Zeiss) and Axiovision Rel. 4.8 software.

SK-N-BE(2) cells [4] = test: Apoptosis, propidium iodide sub G1 DNA content, SK-N-BE(2); format: cell-based, human
Protocol: as §1

SK-N-BE(2) cells [5] = test: Neuronal differentiation of NB cells (neurite outgrowth); format: cell-based, human; conditions: sub-lethal concentrations, 14-15 days
Protocol: SK-N-BE(2) cells were grown for 15 days in 6 well-plates and treated twice per week with DMSO or compound, with and without NGF. Differentiation was assessed based on number and length of neuronal outgrowths using a phase contrast microscope (Axiovert 40 CFL, Zeiss) and the Axiovision Rel. 4.8 software.
Phase contrast micrographs show representative pictures from one out of 3 to 5 independent experiments.

[6] = Solubility in aqueous buffers (SPR running buffer); format: physicochemical; conditions: could not be analyzed at concentrations above 50 µM
Protocol: (§2) For all SPR binding measurements the compounds were injected at increasing concentrations.

MYCN/MAX interaction = target: T1, MYCN/MAX interaction (Homo sapiens, UniProt P04198); test: Proximity ligation assay (PLA) for MYCN/MAX interaction in SMS-KCN69n cells; format: cell-based; conditions: for effect on MYCN/MAX interaction (PLA): 6 hours treatment, compared to DMSO
T1 construct: endogenous in cells; host or cells: SMS-KCN69n (human MYCN-amplified neuroblastoma)
T1 sequence (P04198 1-464): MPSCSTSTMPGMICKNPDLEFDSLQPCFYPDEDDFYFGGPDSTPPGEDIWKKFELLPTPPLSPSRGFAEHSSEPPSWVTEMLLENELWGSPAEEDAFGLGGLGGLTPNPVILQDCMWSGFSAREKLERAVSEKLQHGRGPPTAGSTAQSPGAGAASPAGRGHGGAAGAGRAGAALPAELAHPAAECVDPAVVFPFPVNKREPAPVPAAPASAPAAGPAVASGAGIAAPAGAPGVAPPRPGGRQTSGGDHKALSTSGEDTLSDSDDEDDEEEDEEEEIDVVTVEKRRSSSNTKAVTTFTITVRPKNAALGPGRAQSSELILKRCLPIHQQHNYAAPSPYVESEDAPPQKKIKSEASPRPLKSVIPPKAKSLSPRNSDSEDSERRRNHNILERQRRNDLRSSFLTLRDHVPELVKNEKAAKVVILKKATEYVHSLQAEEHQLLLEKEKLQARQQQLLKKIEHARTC
Excerpt: To investigate if the other small molecules also have an effect on MYCN/MAX dimerization we performed a proximity ligation assay (PLA) using MYCN-amplified SMS-KCN69n NB cells. […] No signal was detected in any of the experimental negative controls (Figure S4).
Figure 3 Reduction of MYCN/MAX interaction in NB cells after treatment with small molecules. A) Proximity ligation assay (PLA) for MYCN/MAX interaction after treatment of SMS-KCN69n cells with the different small molecules at the indicated concentrations for 6 hours. […] DNA is stained with DAPI. Scale bar: […]. The pictures are representative from three independent experiments. B) Quantification of the PLA signals per cell after treatment with the different compounds. Error bars indicate standard error of the mean.
40×10^3 SMS-KCN69n cells were seeded on collagen coated coverslips and grown for 24 hours and treated for 6 hours the next day. After 6 hours the cells were washed in PBS and treated as previously described. The PLA assay was performed after manufacturer's instructions with the Duolink kit (Olink, Uppsala, Sweden). The cells were incubated with primary antibody against MYCN (NCMII100, St Cruz Bio) 1∶500 and Max (C-17, St Cruz Bio) 1∶500 for 1 hour in a humidity chamber at 37°C, which were diluted in antibody diluent provided by the manufacturer. MYCN (1∶500) and FAS (A-20, St Cruz Bio) 1∶500 as well as MAX (1∶500) and GFP (C-2, St Cruz Bio) 1∶500 antibodies were used in combination in order to test for any unspecific binding of the secondary antibodies or unspecific signals. […]
The confocal images of the cells were acquired at 63× magnification using a motorized axiovert fluorescence microscope 200 M LCI (Zeiss GmBH, Göttingen, Germany) including a CSU10 Yokogawa head; a multilens/multipinhole array aperture (Yokogawa, Japan), an ORCA ER cold CCD camera; detector array 1344×1024px (Hammamatsu, Japan) and two continuous wave diode-pumped solid-state (DPSS) lasers for fluorescence excitation (Cobolt, Sweden); Cobolt Calypso 491 nm DPSS (excitation of green PLA fluorophore) and Cobolt Jive 561 nm DPSS (excitation of Alexa Fluor 568). […] A total amount of at least 120 cells were analyzed for all compounds. The PLA signals were analyzed using the open source image analysis program Image J (NIH, Bethseda, USA) and the amount of PLA signal per cell was calculated. Two persons analyzed the images independently in a blind fashion.
In order to quantify the PLA signal from the total z-depth of each cell confocal z-stacks was projected in z and identically processed regarding background subtraction. The PLA signal was then quantified blindly and automatically using a find maxima-based algorithm in ImageJ (plugin routine developed by Dr. E. Flaberg and Professor L. Szekely, KI and available upon request). […]

[7] = target: T2, bHLHZip domain of human MYCN (380–464) (Homo sapiens, UniProt P04198); test: Surface plasmon resonance binding to bHLHZip of MYCN; conditions: SPR, 25°C, steady state, mean ± SD
T2 construct: N-terminally His-tagged bHLHZip c-MYC (353–437) and bHLHZip MYCN (380–464) proteins were over-expressed in E. coli BL21 (DE3); made in house; host or cells: E. coli BL21 (DE3)
Protocol: as §2
(§3) In order to determine the affinity of the compounds to c-MYC and MYCN, the response for each small molecule was plotted against the analyte (compound) concentration. The KD was defined as the concentration of analyte at 50% of the experimental maximal Response (Rmax). Approximate KD-values could be determined for all compounds except for #764. […] In summary, all active c-MYC inhibitors tested were also found to bind directly to MYCN.
N-terminally His-tagged bHLHZip c-MYC (353–437) and bHLHZip MYCN (380–464) proteins were over-expressed in E. coli BL21 (DE3) bacteria (Stratagene) at 37°C in LB media with kanamycin. Cultures were induced with Isopropyl β-D-1-thiogalactopyranoside (0,1 mg/ml) at an OD of 0.6 and harvested after 4 hours. After sonication of the proteins in 50 mM NaH2PO4, 100 mM NaCl and 10 mM Tris-HCl (pH = 8,0) for 6×30 seconds, the pellet was resuspended in 100 mM NaH2PO4, 10 mM Tris-HCl, 10 mM imidazole and 8 M urea (pH = 8,0) prior to additional sonication for 6×30 seconds. The proteins were then loaded onto a Ni-Sepahrose High Performance His-Trap column (GE Healthcare), washed with ten column volumes of 100 mM NaH2PO4, 10 mM Tris-HCl, 40 mM imidazole and 8 M urea (pH = 8,0) and finally eluted with two column volumes 100 mM NaH2PO4, 10 mM Tris-HCl, 500 mM imidazole and 8 M urea (pH = 8,0). Fractions without visible higher molecular mass contaminations, as judged by SDS-page, were pooled and refolded by dialysis in 50 mM NaH2PO4, 100 mM NaCl, 10 mM Tris-HCl (pH = 8,0), 5 mM EDTA, 2 mM DTT and decreasing concentrations of urea (6 M, 4 M, 2 M and 0 M). […] Protein concentrations were determined by SDS-page comparing purified proteins to a standard curve of BSA loaded on the gel.
(§4) Surface Plasmon Resonance (SPR) experiments were performed using a Biacore T200 (GE Healthcare) instrument at 25°C. […] The obtained data was analyzed by the Biacore T200 Evaluation Software 2.0 (GE Healthcare). […]

Tet21N cells = test: Apoptosis in Tet21N cells with doxycycline regulated MYCN expression; format: cell-based, human; conditions: 48 hour treatment
Excerpt: GAPDH was used as loading control. […] Error bars indicate standard error. (TIF) Click here for additional data file.

MYCN protein levels = test: Western blot of MYCN protein levels in SK-N-BE(2) cells; format: cell-based, human; conditions: 48 hours
Protocol: In order to determine the effect of the other compounds analyzed in this study on the MYCN protein levels, SK-N-BE(2) NB cells were treated with as a high concentration of each compound as possible without resulting in excessive cell death. […] Membranes were probed with antibodies recognizing MYCN and GAPDH. The blots are representative from three independent experiments. Whole cell extracts were prepared and lysed using RIPA-buffer. Western blot analysis was performed as previously described. In brief, membranes were probed with a mouse anti-MYCN antibody (B8.4.B, St Cruz Bio), MAX antibody (C-2, St Cruz Bio) and an HRP-conjugated anti-mouse antibody (DAKO) was used as secondary antibody. The membranes were developed using enhanced chemiluminescence substrate (ECL, Amersham).

[8] = tested on: Burkitt's lymphoma cell line xenograft; set-up: method as in PMID 20801893; conditions: cited from earlier work
[9] = tested on: xenograft models of prostate cancer; conditions: cited from earlier work
TH-MYCN transgenic mice = tested on: TH-MYCN transgenic mice; set-up: method as in PMID 23733953; conditions: cited from earlier work
NB xenografts = tested on: NB xenografts; set-up: method as in PMID 23733953; conditions: cited from earlier work
[10] = target: T3, bHLHZip domain of human c-MYC (353–437) (Homo sapiens, UniProt P01106); test: Surface plasmon resonance binding to bHLHZip of c-MYC; conditions: SPR, 25°C, steady state, mean ± SD
T3 construct: N-terminally His-tagged bHLHZip c-MYC (353–437) and bHLHZip MYCN (380–464) proteins were over-expressed in E. coli BL21 (DE3); made in house; host or cells: E. coli BL21 (DE3)
T3 sequence (P01106 368-452): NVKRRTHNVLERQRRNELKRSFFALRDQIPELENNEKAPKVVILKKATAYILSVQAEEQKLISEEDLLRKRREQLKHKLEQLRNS
Protocol: as §2, §3
N-terminally His-tagged bHLHZip c-MYC (353–437) and bHLHZip MYCN (380–464) proteins were over-expressed in E. coli BL21 (DE3) bacteria (Stratagene) at 37°C in LB media with kanamycin. Cultures were induced with Isopropyl β-D-1-thiogalactopyranoside (0,1 mg/ml) at an OD of 0.6 and harvested after 4 hours. […] Protein concentrations were determined by SDS-page comparing purified proteins to a standard curve of BSA loaded on the gel.
as §4

Structure (SMILES)	apoptosis (cell death) induction relative to 10058-F4 (Kelly cells [1])	IC50 (Kelly cells [2]) [µM]	lipid droplet accumulation (SK-N-BE(2) cells [3])	apoptosis (cell death) induction relative to 10058-F4 (SK-N-BE(2) cells [4])	morphological neuronal differentiation (SK-N-BE(2) cells [5])	solubility in aqueous buffers [6]	effect on MYCN/MAX interaction (PLA) (MYCN/MAX interaction)	Kd [7] [µM]	apoptosis induction in cells with high vs low MYCN (Tet21N cells)	effect on MYCN protein levels (MYCN protein levels)	antitumor activity in Burkitt's lymphoma xenograft [8]	antitumor activity in prostate cancer xenografts [9]	survival of TH-MYCN transgenic mice (TH-MYCN transgenic mice)	anti-tumor effects in NB xenografts (NB xenografts)	effect on MYCN/MAX interaction (PLA) at 112.5 µM (MYCN/MAX interaction; 112.5 µM)	Kd [10] [µM]
O=[N+]([O-])c1ccc(Nc2ccccc2-c2ccccc2)c2nonc12 [Compound 10074-G5]	more potent than 10058-F4 in inducing cell death	22.5	smaller but more numerous lipid droplets	more potent than 10058-F4 in inducing cell death	evident neurite outgrowth	especially poor solubility in aqueous buffers	reduced the MYCN/MAX interaction	19.2	MYCN dependent induction of apoptosis	decreased the MYCN protein levels at lower concentrations than 10058-F4	failed to show any antitumor activity					
CCc1ccc(C=C2SC(=S)NC2=O)cc1 [Compound 10058-F4, [Z,E]-5-[4-ethylbenzylidine]-2-thioxothiazolidin-4-one]		41.1					reduced the MYCN/MAX interaction	41.9	cells with low MYCN-levels were less sensitive	able to efficiently decrease the MYCN protein levels		no significant antitumor activity	increased the survival	showed anti-tumor effects		
CCc1ccc(C=C2SC(=O)NC2=O)cc1 [C-m/z 232]							did not affect MYCN/MAX dimer formation	87.1							not able to effect the MYCN/MAX interaction	82.3
